Test results published in US7282608B2, “Inhibitors of histone deacetylase” (Methylgene, Inc., priority 2002, dated 2007).
pEC50, pIC50: −log10 of the molar value.

Key:
[1] = test system: acetylated histone H-4 in T24 human bladder cancer cells; assay: Histone H4 acetylation in whole cells by immunoblots; type: cell-based; details: 16 h, immunoblot densitometry, read-out: H4 Ac (T24) EC50
Protocol: T24 human bladder cancer cells growing in culture were incubated with HDAC inhibitors for 16 h. Histones were extracted from the cells after the culture period as described by M. Yoshida et al. (J. Biol. Chem. 265(28): 17174–17179 (1990)). […] of total histone protein was loaded onto SDS/PAGE and transferred to nitrocellulose membranes. Membranes were probed with polyclonal antibodies specific for acetylated histone H-4 (Upstate Biotech Inc.), followed by horse radish peroxidase conjugated secondary antibodies (Sigma). Enhanced Chemiluminescence (ECL) (Amersham) detection was performed using Kodak films (Eastman Kodak). Acetylated H-4 signal was quantified by densitometry. Representative data are presented in the fifth column of Table 7–10. Data are presented as the concentration effective for […] the acetylated H-4 signal by 50% (EC50).

HCT116 cells = assay: MTT assay; type: cell-based; details: Homo sapiens, HCT-116, 72 hours
Protocol: HCT116 cells (2000/well) were plated into 96-well tissue culture plates one day before compound treatment. Compounds at various concentrations were added to the cells. The cells were incubated for 72 hours at 37° C. in 5% CO2 incubator. MTT (3-[4,5-dimethylthiazol-2-yl]-2,5 diphenyl tetrazolium bromide, Sigma) was added at a final concentration of 0.5 mg/ml and incubated with the cells for 4 hours before one volume of solubilization buffer (50% N,N-dimethylformamide, 20% SDS, pH 4.7) was added onto the cultured cells. After overnight incubation, solubilized dye was quantified by colorimetric reading at […] using a reference at […] using an MR700 plate reader (Dynatech Laboratories Inc.). OD values were converted to cell numbers according to a standard growth curve of the relevant cell line. The concentration which reduces cell numbers to 50% of that of solvent treated cells is determined as MTT IC50. IC50 values for representative compounds are presented in the fourth column of Tables 7–10.

[2] = molecular target: T1, cloned recombinant human HDAC-1 (Homo sapiens, UniProt Q13547); assay: Human HDAC-1 Assay 1: [3H]-acetylated histone deacetylase assay; type: biochemical; details: Assay 1, unbracketed data; [3H]-acetylated histone substrate, 10 min at 37° C.
T1 construct: made in house; host or cells: Baculovirus insect cell expression system
Protocol: HDAC inhibitors were screened against a cloned recombinant human HDAC-1 enzyme expressed and purified from a Baculovirus insect cell expression system. For deacetylase assays, 20,000 cpm of the [^3H]-metabolically labeled acetylated histone substrate (M. Yoshida et al., J. Biol. Chem. 265(28): 17174–17179 (1990)) was incubated with 30 μg of the cloned recombinant hHDAC-1 for 10 minutes at 37° C. The reaction was stopped by adding acetic acid (0.04 M, final concentration) and HCl (250 mM, final concentration). […] For inhibition studies, the enzyme was preincubated with compounds at 4° C. for 30 minutes prior to initiation of the enzymatic assay. IC50 values for HDAC enzyme inhibitors were determined by performing dose response curves with individual compounds and determining the concentration of inhibitor producing fifty percent of the maximal inhibition. IC50 values for representative compounds assayed using this procedure are presented in the third column of Tables 7–10 (excepting bracketed data).

T1 sequence (Q13547 whole entry): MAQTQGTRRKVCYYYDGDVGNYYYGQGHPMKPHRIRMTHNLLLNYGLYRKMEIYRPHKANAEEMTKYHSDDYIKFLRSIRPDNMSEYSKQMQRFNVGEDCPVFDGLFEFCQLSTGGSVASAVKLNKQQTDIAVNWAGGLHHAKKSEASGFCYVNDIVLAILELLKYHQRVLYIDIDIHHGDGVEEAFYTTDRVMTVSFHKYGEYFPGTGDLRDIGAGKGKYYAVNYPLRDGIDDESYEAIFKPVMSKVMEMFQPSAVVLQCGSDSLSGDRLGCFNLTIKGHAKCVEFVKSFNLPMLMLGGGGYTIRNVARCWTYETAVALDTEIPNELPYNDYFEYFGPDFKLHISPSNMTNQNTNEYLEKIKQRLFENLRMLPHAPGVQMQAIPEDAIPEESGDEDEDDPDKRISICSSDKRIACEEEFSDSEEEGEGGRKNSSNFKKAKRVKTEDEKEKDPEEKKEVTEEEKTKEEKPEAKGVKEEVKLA

Row | SMILES | pEC50 [1] | pIC50 (HCT116 cells) | pIC50 [2]
1 | COc1cc(C)nc(NC/C=C/c2ccc(C(=O)Nc3ccccc3N)cc2)n1 [XVd, N-(2-Amino-phenyl)-4-[3-(4-methoxy-6-methyl-pyrimidin-2-ylamino)-propenyl]-benzamide] | 5.52 | 6.52 | 5.40
2 | COc1ccc(NC/C=C/c2ccc(C(=O)Nc3ccccc3N)cc2)cc1OC [XVi, N-(2-Amino-phenyl)-4-[3-(3,4-dimethoxy-phenylamino)-propenyl]-benzamide] | 5.40 | 6.00 | 6.00
3 | Nc1ccccc1NC(=O)c1ccc(/C=C/C(=O)c2ccccc2)cc1 [XXIVa, N-(2-Amino-phenyl)-4-(3-oxo-3-phenyl-propenyl)-benzamide] | 5.52 | 6.40 | 5.40
4 | Nc1ccccc1NC(=O)c1ccc(/C=C/C(=O)c2ccccc2[N+](=O)[O-])cc1 [XXIVb, N-(2-Amino-phenyl)-4-[3-(2-nitro-phenyl)-3-oxo-propenyl]-benzamide] | 5.52 | 7.00 | 5.10
5 | COc1ccc(C(=O)/C=C/c2ccc(C(=O)Nc3ccccc3N)cc2)cc1 [XXIVc, N-(2-Amino-phenyl)-4-[3-(4-methoxy-phenyl)-3-oxo-propenyl]-benzamide] | 5.30 | 6.22 | 4.89
6 | COc1cccc(C(=O)/C=C/c2ccc(C(=O)Nc3ccccc3N)cc2)c1 [XXIVd, N-(2-Amino-phenyl)-4-[3-(3-methoxy-phenyl)-3-oxo-propenyl]-benzamide] | > 5.30 | 6.52 | 5.40
7 | COc1ccccc1C(=O)/C=C/c1ccc(C(=O)Nc2ccccc2N)cc1 [XXIVe, N-(2-Amino-phenyl)-4-[3-(2-methoxy-phenyl)-3-oxo-propenyl]-benzamide] | 5.30 | 6.10 | 5.52
8 | Nc1ccccc1NC(=O)c1ccc(/C=C/C(=O)c2ccc(N3CCOCC3)cc2)cc1 [XXIVf, N-(2-Amino-phenyl)-4-[3-(4-morpholin-4-yl-phenyl)-3-oxo-propenyl]-benzamide] | 5.52 | 6.52 | 5.00

Results, then the compound that gave them:

Row | pEC50 [1] | pIC50 (HCT116 cells) | pIC50 [2] | SMILES
9 | > 6.00 | 6.00 | 6.10 | Nc1ccccc1NC(=O)c1ccc(/C=C/CNc2nc3ccccc3s2)cc1 [XVc, N-(2-Amino-phenyl)-4-[3-(benzothiazol-2-ylamino)-propenyl]-benzamide]
10 | 6.00 | 6.30 | 5.70 | CSc1nc(NC/C=C/c2ccc(C(=O)Nc3ccccc3N)cc2)n[nH]1 [XVe, N-(2-Amino-phenyl)-4-[3-(5-methylsulfanyl-1H-[1,2,4]triazol-3-ylamino)-propenyl]-benzamide]
11 | 5.70 | 6.00 | 5.52 | CC(=O)c1cc2c(cc1NC/C=C/c1ccc(C(=O)Nc3ccccc3N)cc1)OCO2 [XVf]
12 | 5.70 | 6.15 | 5.40 | Nc1ccccc1NC(=O)c1ccc(/C=C/CNCc2cccnc2)cc1 [XVh, N-(2-Amino-phenyl)-4-{3-[(pyridin-3-ylmethyl)-amino]propenyl}-benzamide]
13 | 5.70 | 6.22 | 5.70 | Nc1ccccc1NC(=O)c1ccc(CCC(=O)c2ccccc2)cc1 [XXVIIa, N-(2-Amino-phenyl)-4-(3-oxo-3-phenyl-propyl)-benzamide]
14 | 5.70 | 6.00 | 5.40 | Nc1ccccc1NC(=O)c1ccc(/C=C/CN2CCN(Cc3ccccc3)CC2)cc1 [XXXb, N-(2-Amino-phenyl)-4-[3-(4-benzyl-piperazin-1-yl)-propenyl]-benzamide]
